Data published in patent publication US20250376507A1, “NOVEL TUMOR ANTIGEN-TARGETING ANTICANCER AGENT” (INDUSTRY FOUNDATION OF CHONNAM NATIONAL UNIVERSITY, priority 2022, published 2025).

Legend:
CT-26 cells = experiment: Cell viability (CCK-8) of CT-26 cells; type: cell-based, mouse; conditions: 4 h pretreatment with anticancer agent alone
Experimental: CT-26 and MC-38 cells (10^4 cells per well) were seeded into three wells of a 96-well plate and incubated at 37° C. The next day, the culture medium was replaced with 100 μL of fresh medium containing the above concentrations of anticancer agents. After incubation at 37° C. for 4 h, the culture medium was removed and the cells were washed three times with PBS. […] Finally, CCK-8 reagent (10 μL/well) was added for 3 h at 37° C., and the amount of color in each sample was measured at OD450.

CT-26 tumor = experiment: In vivo anti-cancer efficacy in CT-26 tumor-bearing mice
Experimental: CT-26 and MC-38 tumor cells (106 in 100 μL PBS) were implanted subcutaneously into the right flanks of 6-week-old BALB/c and C57BL/6 female mice (Orient company, Korea), respectively. When the tumors reached about 100 mm^3, the tumor-bearing mice were injected intraperitoneally with anticancer agents (15 mg/kg GEM, 10 mg/kg DOX or 2 mg/kg MTX) three times every 2 days. Simultaneously, the mice were injected intravenously with the PASylated recombinant proteins of the present invention five times every 2 days. The length (L), width (W), and height (H) of each tumor were recorded every 3 days using a digital caliper, and the tumor volume (mm3) was calculated using the following formula (L×H×W)/2. Mice were euthanized when tumors were ˜1,500 mm^3 and all animal experiments were performed in accordance with the general principles and procedures outlined in the National Institutes of Health Guidelines, and all protocols were approved by the Chonnam National University Animal Care and Use Committee (permit number: HCRL 16-001).

| SMILES | decrease in cell viability by pretreatment with anticancer agents (CT-26 cells) | average tumor weight (CT-26 tumor; day 12, combination with DOX, 8 IU/mouse) | tumor growth (CT-26 tumor; dose-finding study, DOX 10 mg/kg i.p. x3, CRT3LP i.v. x5, n=3) |
| --- | --- | --- | --- |
| COc1cccc2c1C(=O)c1c(O)c3c(c(O)c1C2=O)C[C@@](O)(C(=O)CO)C[C@@H]3O[C@H]1C[C@H](N)[C@H](O)[C@H](C)O1 [DOX, doxorubicin, reference compound] | 57.9% | 304.8 mg | grew more slowly than untreated tumors |
| Nc1ccn([C@@H]2O[C@H](CO)[C@@H](O)C2(F)F)c(=O)n1 [GEM, gemcitabine, reference compound] | 45.1% |  |  |
| O=C1c2c(O)ccc(O)c2C(=O)c2c(NCCNCCO)ccc(NCCNCCO)c21 [MTX, mitozantrone, reference compound] | 62.3% |  |  |
